Results: US4740233A, “Substituted 1,2,4-triazolo[1,5-a]-pyrimidine-2-sulfonamides and compositions and methods of controlling undesired vegetation and suppressing the nitrification of ammonium nitrogen in soil” (The Dow Chemical Company, priority 1986, dated 1988)

Tests used:
cotton = assay: Postemergent control of plant species; format: in vivo, Gossypium spp.; conditions: Gossypium hirsutum, post-emergence, 336 h, read-out: percent postemergent control
Description: (§1) In representative operations, each compound to be utilized in a series of tests is dissolved in acetone to one-half of the final volume (twice the final concentration) to be used and the acetone solution in each case is admixed with an equal volume of water containing 0.1 percent by weight of surface active material. The compositions, generally in the nature of an emulsion, were employed to spray separate respective plant species which had been grown to a 2-4 leaf stage in soil of good nutrient content in a greenhouse. The various beds were positioned side by side and exposed to substantially identical conditions of temperature and light. Each bed was maintained so as to prevent any interaction with test compounds in different seed beds. Other plants were left untreated to serve as controls. After treatment, the plants were maintained for about two weeks under greenhouse conditions conducive for good plant growth and watered as necessary. Control refers to the reduction in growth compared to the observed results of the same untreated species.

rape = assay: Postemergent control of plant species; format: in vivo, Brassica napus; conditions: Brassica napus, post-emergence, 336 h, read-out: percent postemergent control
Description: as §1

soybean = assay: Postemergent control of plant species; format: in vivo, Glycine max.; conditions: Glycine max, post-emergence, 336 h, read-out: percent postemergent control
Description: as §1

sugar beet = assay: Postemergent control of plant species; format: in vivo, Beta saccharifera; conditions: Beta vulgaris, post-emergence, 336 h, read-out: percent postemergent control
Description: as §1

cocklebur = assay: Postemergent control of plant species; format: in vivo, Xanthium spp.; conditions: Xanthium strumarium, post-emergence, 336 h, read-out: percent postemergent control
Description: as §1

jimsonweed = assay: Postemergent control of plant species; format: in vivo, Datura stramonium; conditions: Datura stramonium, post-emergence, 336 h, read-out: percent postemergent control
Description: as §1

annual morning glory = assay: Postemergent control of plant species; format: in vivo, Ipomoea spp.; conditions: Ipomoea, post-emergence, 336 h, read-out: percent postemergent control
Description: as §1

pigweed = assay: Postemergent control of plant species; format: in vivo, Amaranthus spp.; conditions: Amaranthus retroflexus, post-emergence, 336 h, read-out: percent postemergent control
Description: as §1

velvetleaf = assay: Postemergent control of plant species; format: in vivo, Abutilon theophrasti; conditions: Abutilon theophrasti, post-emergence, 336 h, read-out: percent postemergent control
Description: as §1

corn = assay: Postemergent control of plant species; format: in vivo, Zea mays; conditions: Zea mays, post-emergence, 336 h, read-out: percent postemergent control
Description: as §1

rice [1] = assay: Postemergent control of plant species; format: in vivo, Oryza sativa; conditions: Oryza sativa, post-emergence, 336 h, read-out: percent postemergent control
Description: as §1

sorghum = assay: Postemergent control of plant species; format: in vivo, Sorghum vulgare; conditions: Sorghum, post-emergence, 336 h, read-out: percent postemergent control
Description: as §1

barnyardgrass [2] = assay: Postemergent control of plant species; format: in vivo, Echinochloa crusgalli; conditions: Echinochloa crus-galli, post-emergence, 336 h, read-out: percent postemergent control
Description: as §1

crabgrass = assay: Postemergent control of plant species; format: in vivo, Digitaria spp.; conditions: Digitaria sanguinalis, post-emergence, 336 h, read-out: percent postemergent control
Description: as §1

yellow foxtail = assay: Postemergent control of plant species; format: in vivo, Setaria lutescens; conditions: Setaria, post-emergence, 336 h, read-out: percent postemergent control
Description: as §1

johnson grass = assay: Postemergent control of plant species; format: in vivo, Sorghum halepense; conditions: Sorghum halepense, post-emergence, 336 h, read-out: percent postemergent control
Description: as §1

wild oats = assay: Postemergent control of plant species; format: in vivo, Avena fatua; conditions: Avena fatua, post-emergence, 336 h, read-out: percent postemergent control
Description: as §1

yellow nutsedge [3] = assay: Postemergent control of plant species; format: in vivo, Cyperus esculentus; conditions: Cyperus, post-emergence, 336 h, read-out: percent postemergent control
Description: as §1

[4] = system: nitrification of ammonium nitrogen; assay: Suppression of nitrification of ammonium nitrogen in soil; conditions: 27° C.
Method in brief: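 Soil (20 g) moistened to its 1/3 bar tension value, mixed with test chemical and incubated sealed for two weeks at 27° C. Nitrate extracted with ammonium sulfate solution and measured by nitrate-specific ion electrode; value given as % NH4-N remaining.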

wheat = assay: Postemergent control of plant species; format: in vivo, Triticum aestivum; conditions: Triticum aestivum, post-emergence, 336 h, read-out: percent postemergent control
Description: as §1

rice [5] = assay: Control of aquatic plant species (paddy water); format: in vivo, Oryza sativa; conditions: Oryza sativa, 216 h, nine days, read-out: Percent control
Description: (§2) In testing for such utility, the plant species to be tested were transplanted into 16 oz. containers into about 2 inches of soil when they were in the 1-2 inch stage and then flooded to a depth of about 1 inch. An acetone concentrate of the chemical to be tested was then injected into the paddy water, the volume injected being varied as desired to provide the desired concentration. Percent control was evaluated nine days after application.

barnyardgrass [6] = assay: Control of aquatic plant species (paddy water); format: in vivo, Echinochloa crusgalli; conditions: Echinochloa crus-galli, 216 h, nine days, read-out: Percent control
Description: as §2

sprangletop = assay: Control of aquatic plant species (paddy water); format: in vivo, Leptochloa filiformis; conditions: Leptochloa filiformis, 216 h, nine days, read-out: Percent control
Description: as §2

yellow nutsedge [7] = assay: Control of aquatic plant species (paddy water); format: in vivo, Cyperus esculentus; conditions: Cyperus, 216 h, nine days, read-out: Percent control
Description: as §2

Compound	plant injury at 500 ppm (cotton) [%]	plant injury at 500 ppm (rape) [%]	plant injury at 500 ppm (soybean) [%]	plant injury at 500 ppm (sugar beet) [%]	pest or weed control at 500 ppm (cocklebur) [%]	pest or weed control at 500 ppm (jimsonweed) [%]	pest or weed control at 500 ppm (annual morning glory) [%]	pest or weed control at 500 ppm (velvetleaf) [%]	plant injury at 500 ppm (corn) [%]	plant injury at 500 ppm (rice [1]) [%]	plant injury at 500 ppm (sorghum) [%]	pest or weed control at 500 ppm (barnyardgrass [2]) [%]	pest or weed control at 500 ppm (crabgrass) [%]	pest or weed control at 500 ppm (yellow foxtail) [%]	pest or weed control at 500 ppm (johnson grass) [%]	pest or weed control at 500 ppm (wild oats) [%]	% NH4-N Remaining After 2 Weeks Incubation ([4]; 0.01 ppm) [%]	% NH4-N Remaining After 2 Weeks Incubation ([4]; 0.1 ppm) [%]	% NH4-N Remaining After 2 Weeks Incubation ([4]; 1 ppm) [%]	% NH4-N Remaining After 2 Weeks Incubation ([4]; 10 ppm) [%]	other results
Cc1cc(C)n2nc(S(=O)(=O)Nc3c(Cl)cc(Cl)cc3Cl)nc2n1 [Compound 35, 5,7-dimethyl-N-(2,4,6-trichlorophynyl)-1,2,4-trizaolo[1,5-a]pyrimidine-2-sulfonamide]	0	70	70	80	95	30	40	0	0	0	20	0	0	0	0	0	0	3	50	78	pest or weed control at 500 ppm (pigweed): 90%; pest or weed control at 500 ppm (yellow nutsedge [3]): 0%
Cc1cc(C)n2nc(S(=O)(=O)Nc3ccccc3S(C)(=O)=O)nc2n1 [Compound 45]	0	70	60	70	25	0	10	50	0	50	0	0	0	0	0	0	0	3	45	94	plant injury at 500 ppm (wheat): 0%; pest or weed control at 500 ppm (yellow nutsedge [3]): 0%
Cc1ccc(NS(=O)(=O)c2nc3nc(C)cc(C)n3n2)c(Cl)c1 [Compound 48]	10	75	55	70	70	30	60	40	0	0	0	0	0	0	0	0	0	3	56	93	plant injury at 500 ppm (wheat): 0%; pest or weed control at 500 ppm (yellow nutsedge [3]): 0%
Cc1cc(C)n2nc(S(=O)(=O)Nc3c(C)cccc3[N+](=O)[O-])nc2n1 [Compound 49]																	42	77	90	99	pest or weed control at 16 g/ha (rice [5]; 0.016 Kg/Ha): 0%; pest or weed control at 500 g/ha (rice [5]; 0.5 Kg/Ha): 97%; pest or weed control at 16 g/ha (barnyardgrass [6]; 0.016 Kg/Ha): 50%; pest or weed control at 500 g/ha (barnyardgrass [6]; 0.5 Kg/Ha): 97%; pest or weed control at 16 g/ha (sprangletop; 0.016 Kg/Ha): 0%; pest or weed control at 500 g/ha (sprangletop; 0.5 Kg/Ha): 97%; pest or weed control at 16 g/ha (yellow nutsedge [7]; 0.016 Kg/Ha): 95%; pest or weed control at 500 g/ha (yellow nutsedge [7]; 0.5 Kg/Ha): 99%
